Key:
SNK-6 (IL-2 2.5 ng/mL) [1] = test: percent inhibition of viability; higher = more inhibition; details: 72 h
[2] = system: normal primary NK cells, pool 3 (3 donors) (IL-2 2.5 ng/mL); test: as above; details: 72 h
IMC-1 (IL-2 20 ng/mL) [3] = test: as above; details: 72 h
[4] = system: normal primary NK cells, pool 1 (3 donors) (IL-2 2.5 ng/mL); test: as above; details: 72 h
KHYG-1 (IL-2 2.5 ng/mL) [5] = test: as above; details: 72 h
[6] = system: normal NK cells expanded with K562-aAPC; test: drug sensitivity score (DSS) (DSS units); higher = more sensitive; extreme values may be limits of the assay; details: 72 h; IL-2 2.5 ng/mL
Experimental: (§1)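 Drug sensitivity and resistance testing on K562-aAPC-expanded normal NK cells: 5 concentrations (10-fold steps over a 10,000-fold range), 72 h at 37 °C, viability by CellTiter-Glo normalised to DMSO and benzethonium chloride controls; DSS from the fitted curve.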

[7] = system: normal NK cells expanded with K562-aAPC; test: percent inhibition of viability; higher = more inhibition; details: 72 h, IL-2 2.5 ng/mL
Experimental: as §1

NK-YS (IL-2 2.5 ng/mL) = test: drug sensitivity score (DSS) (DSS units); higher = more sensitive; extreme values may be limits of the assay; details: 72 h
DERL-7 (IL-2 2.5 ng/mL) = test: as above; details: 72 h
[8] = system: normal primary NK cells, pool 1 (3 donors), resting (IL-2 0 ng/mL); test: as above; details: 72 h
KAI3 (IL-2 2.5 ng/mL) = test: as above; details: 72 h
NKL (IL-2 2.5 ng/mL) = test: as above; details: 72 h
NK-92 (IL-2 2.5 ng/mL) = test: as above; details: 72 h
YT (IL-2 2.5 ng/mL) = test: as above; details: 72 h
[9] = system: normal primary NK cells, pool 2 (3 donors) (IL-2 2.5 ng/mL); test: as above; details: 72 h
SNK-6 (IL-2 2.5 ng/mL) [10] = test: as above; details: 72 h
[11] = system: normal primary NK cells, pool 3 (3 donors) (IL-2 2.5 ng/mL); test: as above; details: 72 h
IMC-1 (IL-2 20 ng/mL) [12] = test: as above; details: 72 h
[13] = system: normal primary NK cells, pool 1 (3 donors) (IL-2 2.5 ng/mL); test: as above; details: 72 h
KHYG-1 (IL-2 2.5 ng/mL) [14] = test: as above; details: 72 h

O=C(NOCC1CC1)c1ccc(F)c(F)c1Nc1ccc(I)cc1Cl (max concentration tested 10000 nM)
percent inhibition of viability [%]
Details | IMC-1 (IL-2 20 ng/mL) [3] | KHYG-1 (IL-2 2.5 ng/mL) [5] | SNK-6 (IL-2 2.5 ng/mL) [1] | [2] | [4] | [7]
1 nM | 2.83 | 2.03 | – | -3.37 | -7.14 | -3.45
10 nM | 1.66 | 1.47 | – | 0.57 | -7.1 | -0.57
100 nM | 4.76 | 16.1 | -27.2 | -3.93 | 14.2 | -0.04
1000 nM | 7.54 | 39 | -19.6 | -0.21 | 13 | 3.29
10000 nM | 65.8 | 82.4 | 97.3 | 13.6 | 17.1 | 35.4

Details | drug sensitivity score
DERL-7 (IL-2 2.5 ng/mL) | 7.6
IMC-1 (IL-2 20 ng/mL) [12] | 4.87
KAI3 (IL-2 2.5 ng/mL) | 11.1
KHYG-1 (IL-2 2.5 ng/mL) [14] | 9.71
NK-92 (IL-2 2.5 ng/mL) | 5.23
NK-YS (IL-2 2.5 ng/mL) | 5.39
NKL (IL-2 2.5 ng/mL) | 16.6
SNK-6 (IL-2 2.5 ng/mL) [10] | 4.38
YT (IL-2 2.5 ng/mL) | 6.98
[6] | 2.2
[8] | 3.64
[9] | 1.26
[11] | 0.13
[13] | 3.11
